Source: publication PMC5902452, “In silico optimization of a guava antimicrobial peptide enables combinatorial exploration for peptide design” (Nature Communications, 2018)
Peptide text beside a SMILES is read from it.

Legend:
human erythrocytes = test: Hemolytic assay; details: SPOT-synthesized crude peptides; human red blood cells in NaCl 0.85%, 1 h, 37 °C; hemoglobin release at 546 nm; highest concentration 200 μg mL−1; 100% of hemolysis was not observed
Description: Fresh human venous blood was collected from volunteers in Vacutainer collection tubes containing sodium heparin as an anticoagulant (BD Biosciences, Franklin Lakes, NJ). The blood was centrifuged applying 151 × g force (1500 rpm) and the serum was removed and the blood cells were replaced and washed three times with the same volume of sterile NaCl 0.85% solution. Concentrated red blood cells were diluted tenfold in NaCl 0.85% solution and then exposed at twofold dilutions of peptides for 1 h at 37 °C, at identical concentrations used for antimicrobial assays, in the ratio of 1:1 (v/v), achieving a final volume of 100 μL. The assay was carried out in 96-well polypropylene microtiter plates. The positive control wells contained 1% of Triton X-100, representing 100% cell lysis, and negative control wells contained sterile saline. Hemoglobin release was monitored chromogenically at 546 nm using a microplate reader.

[1] = tested on: Enterococcus faecalis ATCC 29212; type: cell-based; details: ATCC 29212, 18 h
Description: (§2) Lysogeny Broth (LB) was used for cultures of Acinetobacter baumannii ATCC 19606, Enterococcus faecalis ATCC 29212, Escherichia coli ATCC 25922, Klebsiella pneumoniae ATCC 13883, Pseudomonas aeruginosa ATCC 27853, and S. aureus ATCC 25923. Brain Heart Infusion (BHI) broth was used for cultures of Listeria ivanovii Li 4pVS2 and Streptococcus pyogenes ATCC 19615. Yeast peptone dextrose (YPD) medium was used for Candida species (C. albicans ATCC 90028 and C. parapsilosis ATCC 22019). MH (Mueller Hinton) broth was used for suspend centrifuged culture of bacteria and yeasts in logarithmic phase to an A630 of 0.01 (~10^6 cfu mL^−1), except for S. pyogenes, L. ivanovii, and E. faecalis that were suspended in their respective growth medium. […] A microplate reader (UVM 340, Asys Hitech) was used to monitor the antimicrobial susceptibility by measuring the change in A630. […] Each experiment was performed in triplicate with positive (0.7% formaldehyde) and negative (without peptide) inhibition controls.

E. coli ATCC 25922 [2] = test: Membrane polarization assay with DiSC3(5); type: cell-based, Escherichia coli; details: 12.5 µM (twofold above the MIC), 20 min, 37 °C
Description: When the cytoplasmic membrane is intact, the fluorescent probe DiSC3(5) accumulates into the cytoplasmic membrane and then aggregates, causing self-quenching of the fluorescence. In the presence of a membrane-depolarizing agent, DiSC3(5) is released into the medium, leading to an increase in fluorescence that can be monitored over time[59]. Briefly, exponentially growing bacteria were centrifuged (1000 × g, 10 min, 4 °C), washed with PBS, and resuspended in the same buffer to an A630 of 0.1; then 700 µL of bacteria were pre-incubated with 1 µM DiSC3(5) in the dark during 10 min at 37 °C, and then 100 µL of 1 mM KCl were added in order to equilibrate the cytoplasmic and external K^+ concentrations. […] Three independent experiments were performed and results correspond to a representative experiment with negative (PBS) and positive (melittin) controls.

P. aeruginosa ATCC 27853 = test: SEM-FEG imaging; type: cell-based, Pseudomonas aeruginosa; details: 25 µM (MIC) and 50 µM, 1 h, 37 °C
Description: Bacteria in mid-logarithmic phase were collected by centrifugation ([…], 10 min, 4 °C), washed twice with PBS, and suspended in the same buffer at a density of 2 × 10^7 cfu mL^−1. […] As a negative control, cells were incubated in buffer without peptide. Microbial cells were then fixed with 2.5% glutaraldehyde, homogenized by gently inverting the tubes, and stored at 4 °C prior to SEM-FEG analysis. A Hitachi SU-70 Field Emission Gun Scanning Electron Microscope was used to record SEM-FEG images. The samples (gold plates where 20 µL of inoculum were deposited and dried under nitrogen) were fixed on an alumina SEM support with a carbon adhesive tape and were observed without metallization. In Lens Secondary electron detector (SE-Lower) was used to characterize our samples. The accelerating voltage was 1 kV and the working distance was around 15 mm. At least five to ten different locations were analyzed on each surface, leading to the observation of a minimum of 100 single cells.

[3] = tested on: Acinetobacter baumannii ATCC 19606; test: Antimicrobial activity, MIC by twofold serial dilution; type: cell-based; details: purified peptide; MH broth, 18 h, 37 °C, A630; average of three independent experiments in triplicate
Description: as §2

[4] = tested on: P. aeruginosa strain PAO1; test: Scarification skin infection mouse model; type: in vivo, female CD-1 mice
Description: P. aeruginosa strain PAO1 was grown to an optical density at 600 nm (OD600) of 1 in tryptic soy broth medium. Subsequently cells were washed twice with sterile PBS, and resuspended to a final concentration of 5 × 10^7 CFU in 50 μL. To generate skin infection, female CD-1 mice (6 weeks old) were anesthetized with isoflurane and had their backs shaved. A superficial linear skin abrasion was made with a needle in order to damage the stratum corneum and upper layer of the epidermis. Five minutes after wounding, an aliquot of 50 μL containing 5 × 10^7 CFU of bacteria in PBS was inoculated over each defined area containing the scratch with a pipette tip. One day after the infection, peptides were administered to the infected area. Animals were euthanized and the area of scarified skin was excised 2 and 4 days post-infection, homogenized using a bead beater for 20 min (25 Hz), and serially diluted for CFU quantification. Two independent experiments were performed with four mice per group in each case. Statistical significance was assessed using a two-way ANOVA. Animals were maintained in accordance with the Guide for the Care and Use of Laboratory Animals in an AAALAC-accredited facility. All procedures were approved by the MIT’s Institutional Animal Care and Use Committee (IACUC), protocol number 1016-064-19.

[5] = tested on: Staphylococcus aureus ATCC 25923; type: cell-based; details: ATCC 25923, 18 h
Description: as §2

E. coli ATCC 25922 [6] = type: cell-based, Escherichia coli
Description: Exponentially growing bacteria in LB were harvested by centrifugation, washed three times in PBS and suspended in the same buffer to a final concentration of 10^7 cfu mL^−1. One hundred microliters of this bacterial suspension was incubated with a dose of peptide corresponding to twofold the MIC. Then, aliquots of 10 µL were withdrawn at different times, diluted in LB, and spread onto LB agar plates. The cfu were counted after overnight incubation at 37 °C.

[7] = tested on: C. albicans clinical isolate; test: Antibiofilm assay (planktonic growth and biofilm formation, crystal violet); type: cell-based, Candida albicans
Description: (§1) Overnight cultures of microorganisms [E. coli 0157, methicillin-resistant S. aureus (MRSA), K. pneumoniae 1825971, or C. albicans clinical isolate obtained from a blood culture maintained at LACEN (Laboratório Central de Saúde do Distrito Federal, a Brazilian reference laboratory for clinical isolates in Brasília, Brazil)] grown in LB broth (BD Difco) were diluted 1 in 100 in LB and Todd-Hewitt broth (BD Difco) or BM2 minimal medium [62 mM potassium phosphate buffer, pH 7.0, 7 mM (NH4)2SO4, 2 mM MgSO4, 10 μM FeSO4, 0.5% glucose], and 100 μL per well was added into 96-well round-bottom microplates. Absorbance at 600 nm was used to assess the planktonic cell growth. Non-adherent planktonic cells were removed from microtiter wells and washed twice with deionized water. Adherent cells were stained with 0.1% crystal violet for 20 min. The microplate wells were washed twice with deionized water, air dried, and solubilized with 110 μL of 70% ethanol. […] Biofilm formation was assessed by measuring the absorbance at 600 nm using a microplate reader (Bio-Tek Instruments, Inc., USA). The microdilution method for cationic peptides was used to determine the MIC for planktonic cells. Three biological replicates were performed for each experiment involving eight technical replicates.

[8] = tested on: methicillin-resistant S. aureus (MRSA); test: Antibiofilm assay; type: cell-based, Staphylococcus aureus
Description: as §1

K. pneumoniae 1825971 = test: Antibiofilm assay; type: cell-based, Klebsiella pneumoniae
Description: as §1

[9] = tested on: Candida albicans ATCC 90028; type: cell-based; details: ATCC 90028, 18 h
Description: as §2

[10] = tested on: Streptococcus pyogenes ATCC 19615; type: cell-based; details: ATCC 19615, 18 h
Description: as §2

## CC[C@H](C)[C@H](NC(=O)[C@H](CCCNC(=N)N)NC(=O)[C@H](Cc1ccc(O)cc1)NC(=O)CNC(=O)[C@H](Cc1ccc(O)cc1)NC(=O)[C@H](CCCNC(=N)N)NC(=O)[C@H](CC(C)C)NC(=O)[C@H](C)NC(=O)[C@H](CCC(N)=O)NC(=O)[C@H](CCC(=O)O)NC(=O)[C@@H](NC(=O)[C@H](CCC(N)=O)NC(=O)[C@H](CCCNC(=N)N)NC(=O)[C@H](CCSC)NC(=O)[C@H](Cc1ccc(O)cc1)NC(=O)[C@H](CCC(N)=O)NC(=O)[C@@H](N)CCCNC(=N)N)[C@@H](C)CC)C(=O)N[C@@H](CO)C(=O)N[C@@H](CCCNC(=N)N)C(=O)N[C@@H](CCCNC(=N)N)C(N)=O [Guavanin 2] (H-RQYMRQIEQALRYGYRISRR-NH2)
Human erythrocytes
  Hemolysis: > 200 µg/mL
[1]
  Active concentration (MIC): >100 µM
E. coli ATCC 25922 [2]
  DiSC3(5) fluorescence change (membrane potential): decrease in DiSC3(5) fluorescence
P. aeruginosa ATCC 27853
  membrane effect seen in SEM-FEG images: membrane damage (deformations/indentations)
[3]
  Active concentration (MIC): 6.25 µM
[4]; 6.25 μg mL−1 (lowest dose) applied to infected area 24 h after infection, after 4 days
  reduction in bacterial counts: 3 log
[4]; doses 6.25, 25 and 100 µg mL−1, 4 days post-infection, two experiments, four mice per group
  effect on CFU counts / bacterial load (two-way ANOVA): significantly reduced CFU counts
[5]
  Active concentration (MIC): 100 µM
E. coli ATCC 25922 [6]; 12.5 µM (twofold above the MIC), 120 min
  colony-forming units remaining (from 10^7): ~ 10^5 colony-forming units
E. coli ATCC 25922 [6]; time–kill, E. coli
  killing speed relative to [I^5, R^8] mastoparan: eightfold slower
[7]
  antibiofilm activity: able to reduce C. albicans biofilms
[7]; crystal violet, Student's t-test, three replicates
  concentration from which biofilm formation is inhibited (p<0.05): 32 µg/mL
[7]; planktonic cells not eliminated, Student's t-test, three replicates
  concentration from which planktonic cells are affected (p<0.05): 16 µg/mL
[8]
  antibiofilm activity: only able to reduce C. albicans biofilms
K. pneumoniae 1825971
  antibiofilm activity: only able to reduce C. albicans biofilms
[9]
  Active concentration (MIC): >200 µM
[10]
  Active concentration (MIC): 50 µM
